Source: patent US7056685B1, “Receptor ligands and methods of modulating receptors” (Amgen Inc., priority 2002, dated 2006)
“Also recorded” adds a separate entry of the source.

Key:
GPR43 = biological target: T1, GPR43 (Homo sapiens, UniProt O15552); test: GPR43 activation by fatty acids (FIG. 2); assay type: cell-based; conditions: for concentration at which GPR43 is activated: FIG. 2
T1 sequence (O15552 1-330): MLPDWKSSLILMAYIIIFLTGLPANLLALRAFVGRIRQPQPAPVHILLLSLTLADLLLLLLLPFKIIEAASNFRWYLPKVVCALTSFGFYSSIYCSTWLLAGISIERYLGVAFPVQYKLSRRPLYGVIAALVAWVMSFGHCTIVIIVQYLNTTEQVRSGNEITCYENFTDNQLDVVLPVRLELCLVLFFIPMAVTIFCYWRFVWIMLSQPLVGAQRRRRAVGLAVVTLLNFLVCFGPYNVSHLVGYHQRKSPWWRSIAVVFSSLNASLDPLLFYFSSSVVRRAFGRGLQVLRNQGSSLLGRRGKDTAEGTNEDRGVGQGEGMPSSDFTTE
Source text: An activated or inhibited G-protein will in turn alter the properties of downstream effectors such as proteins, enzymes, and channels. The classic examples are the activation of cGMP phosphodiesterase by transducin in the visual system, adenylate cyclase by the stimulatory G-protein, phospholipase C by Gq and other cognate G proteins, and modulation of diverse channels by Gi and other G proteins. Downstream consequences such as generation of diacyl glycerol and IP3 by phospholipase C, and in turn, for calcium mobilization e.g., by IP3 (further discussed below) can also be examined. Thus, modulators can be evaluated for the ability to stimulate or inhibit ligand-mediated downstream effects. […] Candidate modulators may be assessed for the ability to inhibit inositol phosphate accumulation and/or calcium mobilization induced by the natural ligand, e.g., β-alanine (TGR2), a 2–3 carbon chain fatty acid (GPR43), a medium or long chain fatty acid (GPR40), succinic acid (TGR18), or a-ketoglutaric acid (TGR164).
A battery of fatty acids were tested for the ability to activate GPR43.

TGR18 [1] = biological target: T2, TGR18 (Homo sapiens, UniProt Q9BXA5); test: Inositol phosphate accumulation assay, 293 cells stably expressing TGR18; assay type: cell-based; parameters: expressed in transfected cells; transient for CRE-luciferase; conditions: 45 minutes stimulation
T2 sequence (Q9BXA5 with tags, fused parts or gaps limits assumed): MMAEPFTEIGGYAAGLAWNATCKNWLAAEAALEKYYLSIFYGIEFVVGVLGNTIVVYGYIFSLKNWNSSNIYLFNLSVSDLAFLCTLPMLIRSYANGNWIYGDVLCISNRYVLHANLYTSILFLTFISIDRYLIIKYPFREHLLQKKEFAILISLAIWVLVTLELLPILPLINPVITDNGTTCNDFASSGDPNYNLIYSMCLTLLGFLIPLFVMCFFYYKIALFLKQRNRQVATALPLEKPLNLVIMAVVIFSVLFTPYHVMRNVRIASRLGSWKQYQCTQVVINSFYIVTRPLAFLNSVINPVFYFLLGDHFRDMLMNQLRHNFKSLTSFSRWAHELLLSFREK
Experimental: The ability of various ligands to increase inositol phosphate was also assessed. For this analysis, 293 cells stably expression TGR18 were incubated in inositol-free DMEM/10% dialyzed FCS/1 μCi/ml ^3H-inositol for 16 hours. Following incubation 10 mM LiCi was added to the cells for 15 minutes. Cells were then stimulated with various ligands for 45 minutes and extracted with ice-cold 20 mM formic acid. H3-inositol phosphate was collected on Dowex ion-exchange column (formate form) and radioactivity recorded by Topcount scintillation counter.

TGR164 [2] = biological target: T3, TGR164 (Homo sapiens, UniProt Q96P68); test: Aequorin assay, TGR164; assay type: cell-based; conditions: for activation of TGR164 in Aequorin assay: FIGS. 7A and 7B
T3 construct: expressed in transfected cells; also 'various cell lines'

TGR164 [3] = biological target: T3, TGR164; test: Inositol phosphate accumulation assay, TGR164; assay type: cell-based
TGR18 [4] = biological target: T2, TGR18; test: FLIPR intracellular calcium assay, 293 cells stably expressing TGR18; assay type: cell-based; parameters: expressed in transfected cells; transient for CRE-luciferase; conditions: for activation of TGR18 in FLIPR assay: FIG. 6C
Experimental: Mobilization of intracellular calcium in response to various ligands was also evaluated using a FLIPR assay. In this assay, 293 cells stably expressing TGR18 were seeded into 384-well plates and incubated at 37° C. overnight. The growth medium was then aspirated and replaced with 50 μl loading medium (FLIPR no-wash kit, Molecular Devices) and incubated at 37° C. for 1 hour. The cells were placed in a fluorometric imaging plate reader (FLIPR), and changes in cellular fluorescence were recorded after the addition of 25 μl of various ligands diluted in FLIPR buffer (FLIPR no-wash kit, Molecular Devices). Analogs of succinic acid that activated TGR18 include succinic acid, maleic acid, oxalacetic acid, methylmalonic acid and itaconic acid (FIG. 6C).

TGR18 [5] = biological target: T2, TGR18; conditions: 293 cells; 6 hours
Experimental: The ability of a ligand to induce TGR18-mediated activation of a CRE-luciferase reporter was also evaluated. For this assay, 293 cells were transiently transfected with CRE-luciferase reporter, tk-renila luciferase reporter and TGR18 plasmid. Succinic acid was then added to the cell culture supernatants and incubated for a further 6 hours. The luminescence were recorded on CLIPR after cell lysis as illustrated in Dual-luciferase assay kit (Promega).

thirty other GPCRs = conditions: at 100 μM
Experimental: (§1) In order to examine the ability of a compound to activate TGR18, CHO cells were transiently transfected with 10 μg of the GPCR and 10 μg Aequorin reporter gene in a 150 mm dish. As a negative control, the same amount of empty vector and the Aequorin reporter were cotransfected into CHO cells. After 24 hours, cells were harvested and resuspended in Aequorin buffer (Hank's buffered saline with 20 mM Hepes, pH7.6 and 0.1% BSA) containing 1 μg/ml coelenterazine f and incubated at room temperature for a further 2 hours. The Aequorin luminescence was recorded on Microlumat after injecting 100 μl of cells into 100 μl of ligand prepared in Aequorin buffer.

mouse TGR18 = mouse TGR18 (Mus musculus, UniProt Q99MT6); conditions: FIG. 6A
Experimental: as §1

Human TGR18 = Human TGR18 (Homo sapiens, UniProt Q9BXA5); conditions: FIG. 6A
Experimental: as §1

rat TGR18 = rat TGR18 (Rattus norvegicus, UniProt Q6IYF9); conditions: FIG. 6A
Experimental: as §1

TGR18 [6] = biological target: T2, TGR18; test: TGR18 ligand activity, assay not specified (introduction); assay type: cell-based; parameters: expressed in transfected cells; transient for CRE-luciferase
TGR2 [7] = biological target: T4, TGR2 (Homo sapiens, UniProt Q8TDS7)
mMrgD = mMrgD (Mus musculus, UniProt Q91ZB8)
TGR2 [8] = biological target: T4, TGR2; test: Aequorin assay, CHO cells transiently transfected with TGR2; assay type: cell-based; parameters: expressed in transfected cells; host or cells: CHO cells, transient
40 other orphan GPCRs = conditions: at 10 μM
GPR77 = biological target: T5, GPR77 (Homo sapiens, UniProt Q9P296); test: Competitive binding assay, membrane binding format, cells transiently transfected with GPR77
T5 construct: expressed in transfected cells
Source text: GPR77 was transiently transfected into cells.

T4 sequence (Q8TDS7 whole entry): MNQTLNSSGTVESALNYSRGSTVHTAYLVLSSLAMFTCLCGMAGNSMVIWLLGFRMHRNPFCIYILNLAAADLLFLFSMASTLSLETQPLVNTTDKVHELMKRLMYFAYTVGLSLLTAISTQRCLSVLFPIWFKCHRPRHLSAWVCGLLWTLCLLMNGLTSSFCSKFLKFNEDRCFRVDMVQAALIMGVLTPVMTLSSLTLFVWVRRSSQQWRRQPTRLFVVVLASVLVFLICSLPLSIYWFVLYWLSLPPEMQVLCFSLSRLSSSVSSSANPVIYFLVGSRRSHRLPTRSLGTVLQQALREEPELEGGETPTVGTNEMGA
T5 sequence (Q9P296 whole entry): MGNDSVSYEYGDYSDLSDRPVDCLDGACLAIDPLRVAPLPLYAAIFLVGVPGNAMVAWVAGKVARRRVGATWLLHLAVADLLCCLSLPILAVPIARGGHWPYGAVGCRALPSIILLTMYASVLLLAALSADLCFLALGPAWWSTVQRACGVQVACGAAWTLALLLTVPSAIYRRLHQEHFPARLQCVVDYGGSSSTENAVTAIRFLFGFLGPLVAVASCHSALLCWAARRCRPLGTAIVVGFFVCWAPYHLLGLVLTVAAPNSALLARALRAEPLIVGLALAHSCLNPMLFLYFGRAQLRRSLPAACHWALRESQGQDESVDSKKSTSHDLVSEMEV
rat TGR18, sequence (Q6IYF9 whole entry): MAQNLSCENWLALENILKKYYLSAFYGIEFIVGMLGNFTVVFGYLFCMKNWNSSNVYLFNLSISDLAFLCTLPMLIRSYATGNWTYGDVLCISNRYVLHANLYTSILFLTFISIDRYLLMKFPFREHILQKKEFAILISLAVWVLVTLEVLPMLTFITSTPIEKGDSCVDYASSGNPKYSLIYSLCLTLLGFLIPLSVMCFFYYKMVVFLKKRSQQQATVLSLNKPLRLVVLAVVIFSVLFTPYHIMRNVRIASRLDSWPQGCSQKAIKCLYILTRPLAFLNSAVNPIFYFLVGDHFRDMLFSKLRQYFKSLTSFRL
mMrgD, sequence (Q91ZB8 whole entry): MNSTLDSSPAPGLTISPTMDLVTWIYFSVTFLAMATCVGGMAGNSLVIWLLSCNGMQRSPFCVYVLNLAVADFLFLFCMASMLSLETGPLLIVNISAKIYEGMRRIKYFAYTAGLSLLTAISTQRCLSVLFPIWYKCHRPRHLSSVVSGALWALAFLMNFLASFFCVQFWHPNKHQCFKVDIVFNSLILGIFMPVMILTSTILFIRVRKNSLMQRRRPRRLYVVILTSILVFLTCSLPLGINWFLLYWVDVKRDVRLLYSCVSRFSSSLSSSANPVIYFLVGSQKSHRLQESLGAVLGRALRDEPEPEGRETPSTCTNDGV
mouse TGR18, sequence (Q99MT6 whole entry): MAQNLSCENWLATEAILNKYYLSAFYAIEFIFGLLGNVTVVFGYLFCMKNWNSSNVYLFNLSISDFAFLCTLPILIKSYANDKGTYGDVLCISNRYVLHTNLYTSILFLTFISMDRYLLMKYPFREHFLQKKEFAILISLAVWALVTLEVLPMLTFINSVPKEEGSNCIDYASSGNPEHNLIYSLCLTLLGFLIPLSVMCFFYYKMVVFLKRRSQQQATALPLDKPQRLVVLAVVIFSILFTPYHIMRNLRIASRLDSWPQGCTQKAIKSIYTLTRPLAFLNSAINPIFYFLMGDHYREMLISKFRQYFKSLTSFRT

CC(=O)O [acetate]
concentration at which GPR43 is activated (GPR43): about 140 μM

O=C(O)/C=C/C(=O)O [fumaric acid]
increase of inositol phosphate levels, TGR18 (TGR18 [1]): did not

CCCCCCC(=O)O [heptanoeate]
activation of GPR43 (GPR43): do not activate

C=C(CC(=O)O)C(=O)O [itaconic acid]
activation of TGR164 in Aequorin assay (TGR164 [2]): activated
inositol phosphate accumulation, TGR164 (TGR164 [3]): observed
activation of TGR18 in FLIPR assay (TGR18 [4]): activated

O=C(O)/C=C\C(=O)O [maleic acid]
activation of TGR18 in FLIPR assay (TGR18 [4]): activated

CC(C(=O)O)C(=O)O [methylmalonic acid]
activation of TGR18 in FLIPR assay (TGR18 [4]): activated

CCCCCCCC(=O)O [octanoate]
activation of GPR43 (GPR43): do not activate

O=C(O)CC(=O)C(=O)O [oxalacetic acid]
activation of TGR18 in FLIPR assay (TGR18 [4]): activated

CCCCC(=O)O [pentanoate]
activation of GPR43 (GPR43): do not activate

CCC(=O)O [propionate]
concentration at which GPR43 is activated (GPR43): about 140 μM

O=C(O)CCC(=O)O [succinic acid]
TGR18-mediated activation of CRE-luciferase reporter (TGR18 [5]): induced
EC50 (TGR18 [4]; 293 cells stably expressing TGR18, FIG. 6B, read-out: EC50 of TGR18 activation in FLIPR assay): ~27 µM
activation of TGR18 in FLIPR assay (TGR18 [4]): activated
increase of inositol phosphate levels, TGR18 (TGR18 [1]): increased inositol phosphate levels
activation of thirty other GPCRs (thirty other GPCRs): does not activate
activation of mouse TGR18 in Aequorin assay (mouse TGR18): activated
activation of human TGR18 in Aequorin assay (Human TGR18): activated
activation of rat TGR18 in Aequorin assay (rat TGR18): activated

O=C1CCC(=O)O1 [succinic anhydride]
ligand for / activation of TGR18 (TGR18 [6]): ligands for TGR18

O=C(O)CCC(=O)C(=O)O [α-ketoglutaric acid]
activation of TGR164 in Aequorin assay (TGR164 [2]): TGR164 ligand
activation of TGR164 in Aequorin assays in multiple cell lines (TGR164 [2]; multiple cell lines): activates
inositol phosphate accumulation, TGR164 (TGR164 [3]): observed

NCCC(=O)O [β-alanine]
activation of TGR2 in inositol phosphate accumulation assay (TGR2 [7]): activated
activation of mouse ortholog mMrgD in Aequorin assay (mMrgD): specifically activated
EC50 (TGR2 [8]; CHO cells transiently transfected with TGR2, FIG. 1): 9.1 µM
activation of TGR2 (increase in intracellular calcium), library screen (TGR2 [8]; at 10 μM): positive hit
activation of 40 other orphan GPCRs (40 other orphan GPCRs): did not activate

ASP: Acylation stimulating protein, identical to the desarginated form of complement C3a, i.e., C3adesArg
binding to GPR77, competition with C5a and C3a (GPR77): shown to bind to GPR77; also recorded: competed with C5a and C3a
